*1 amine or outer side, *2 acyl side, *3 side chain or, on linkers, in order; H or OH if unused. Where a SMILES comes first, the peptide text is derived from it. Bridges are numbered along the chain shown (N, C = ends). Roman numbers before positions name the chains, in order. [ ]: non-standard residue; d: D form. The star is where a group is joined. X1 = O=C([C@H](CCCn1nnc2c1-c1ccccc1CN([*:3])c1ccccc1-2)N[*:1])[*:2]; Dolaproine = CO[C@@H]([C@@H]1CCCN1)[C@@H](C)C(=O)O; X3 = O=C(CCC(=O)[*:1])NCCOCCOCCOCCC(=O)[*:2]; Dil = CC[C@H](C)[C@H](NC)[C@@H](CC(=O)O)OC; PABC = O=C(OCc1ccc(N[*:1])cc1)[*:2]; X2 = C[C@@H](N*)[C@@H](O)c1ccccc1; Cit = NC(=O)NCCC[C@H](N)C(=O)O; NMeV = CN[C@H](C(=O)O)C(C)C
Key:
[1] = system: RFP-expressing U87MG cells; assay: Inhibition of cell proliferation and cytotoxicity over time (IncuCyte, SYTOX green); assay type: cell-based; conditions: only 3 h of exposure
Protocol: To assess the activity of each drug conjugate in a model more representative of in vivo therapy, a similar assay was set up incubating RFP-expressing U87MG cells with SYTOX green and imaging every 4 h. After several time points, cells were washed and media was replaced with either fresh, drug-containing media or fresh, drug-free media (FIG. 14). All conjugates maintained high potency and inhibited proliferation after only 24 h exposure (FIG. 14B). […] The inhibition of cellular proliferation mirrored the measured cytotoxicity. All conjugates induced nearly 100% cell death when incubated without washing, with a wash of drug-containing media, or with washing after 24 h (FIG. 14D, 14E). Each construct was also evaluated under an even more stringent condition, with washing after 3 h of exposure. […] KFDC and KADC experienced substantial reductions in their respective potencies and each inhibited ˜50% of cell proliferation.
RFP-expressing U87MG cells were seeded in a 96-well plate (Corning) at a density of 2.5×10^3 cells per well and grown overnight. Cells were then treated with 200 μL of fresh media containing 10 nM Cytox Green (ThermoFisher) and KDC, KFDC, KADC, or MMAE, at the approximate ED50 of 10 nM or at the saturating concentration of 100 nM. Cells were incubated in an IncuCyte S3 Live-Cell Analysis System for 5 d with images collected every 4 h. […]

[2] = system: U87MG glioblastoma hip xenografts; assay: Ex vivo biodistribution of AF680-labeled conjugates; assay type: in vivo, mice; conditions: radiant efficiency of excised organs
Protocol: To further assess the tumor-to-background ratio, the uptake of fluorescently-labeled drug conjugate by each organ was measured ex vivo. Nude mice bearing U87MG glioblastoma hip xenografts were injected intravenously with Alexa Fluor 680-conjugated proteins. Mice were sacrificed after 3 or 24 h and organs were removed for imaging. […] Specifically, the liver, kidneys, spleen, pancreases, heart, lungs, bladder, quadriceps, and femur (FIG. 18).
Mice bearing U87MG flank xenografts, as described above, were injected intravenously with 1.5 nmol of Alexa Fluor 680-labeled K, KFc, or KAb. Organs (tumor, liver, kidneys, spleen, pancreas, heart, lungs, bladder, quadriceps muscle, and bone) were collected at end points of 4 h and 24 h. Organs were imaged using an IVIS Spectrum (PerkinElmer). The fluorophore-conjugated protein was detected using excitation/emission wavelengths of 640 nm and 710 nm, respectively. All imaging analysis was performed using Living Image software (Caliper Life Sciences).

U87MG hip xenografts = assay: Therapeutic efficacy study, once weekly for four weeks, tumors implanted with Matrigel; assay type: in vivo, Nu/Nu mice
Protocol: To further investigate each compound, several changes were made to the experimental design. Because of the KDC's rapid systemic clearance, a significant portion of the injected dose is likely lost and the ˜0.6 mg/kg dose was therefore increased substantially. Because dosages for chemotherapeutics are conventionally determined as mass of chemotherapeutic per patient body surface area, a more clinically relevant comparison of equal mass was selected over an equimolar comparison. Next, a once-per-week dosing regimen was selected to coincide with realistic clinical dosing considerations. Finally, tumors were implanted with Matrigel matrix to increase tumor growth and with only 2.5×10^6 cells per injection to decrease initial tumor necrosis. Mice bearing U87MG hip xenografts were equally distributed into the following treatment groups with intravenous injections given once weekly for 4 weeks: KDC, KFDC, KADC, unconjugated proteins, or a PBS control. Each drug conjugate was also evaluated at a low dose and a high dose.
For tumor cell implantation, female Nu/Nu mice (Charles River Laboratory) were anesthetized with 2.5% isoflurane by inhalation with a flow rate of 1 L/min. A volume of 200 μL of 50/50 PBS/Matrigel (Corning), containing 2.5×10^6 U87MG cells, was injected subcutaneously into the right flank. Tumors were allowed to grow for 7 days until reaching a size of approximately 35 mm^2. For therapeutic efficacy studies, mice were binned into experimental groups to ensure equivalent average tumor sizes and starting body weights across all groups.
Mice bearing U87MG flank xenografts, as described above, were injected intravenously with PBS, KDC, KFDC, KADC, or controls proteins. Treatments were administered once per week for four weeks. Tumors were measured three times per week using digital calipers and animal weights were recorded on each dosing day to monitor for potential weight loss as a measure of compound toxicity. Tumor area was calculated as the longest axis of the tumor multiplied by the perpendicular axis. Euthanasia criteria were defined as a tumor area greater than 150 mm^2 or a loss of 20% body weight.

[3] = Liver and kidney histology (H&E) of treated mice; assay type: in vivo; conditions: scored by independent pathologist, after the 60-day experiment
Description: Despite the impressive in vivo efficacy of the KDCs, there are potential concerns of acute toxicity given its rapid renal filtration and high molar dose of MMAE. […] After the 60-day experiment, livers and kidneys were harvested from treated mice, fixed in 4% paraformaldehyde (PFA), then embedded in paraffin blocks for tissue sectioning. Sections were stained with hematoxylin and eosin to visualize cellular structures and scored by an independent pathologist for evidence of acute toxicity. Representative images shown in FIG. 26 were all free from indicators of toxicity and all samples were scored identically to healthy mice.

U87MG tumor spheroids = assay: Endpoint spheroid killing assay (SYTOX green, plate reader); assay type: cell-based; conditions: 100 nM
Protocol: (§1) Next, this in vitro model was modified to test if similar cell killing could be visualized in addition to confocal imaging experiments. Spheroids were treated with drug conjugates or MMAE at a range of concentrations. After incubating with drug conjugates for 5 d, media was replaced with fresh media containing SYTOX green. Fluorescence measured by a BioTek Synergy H4 microtiter plate reader was compared to spheroids treated with lysis buffer. […] To visualize this killing over time, spheroids treated with 50 or 100 nM of drug conjugates or MMAE were imaged every 4 h using an IncuCyte.
Spheroids of U87MG cells were formed by seeding round-bottom, 96-well ultra-low adhesion plates (Corning) with 4×10^3 cells/well and centrifuging at 1000×g for 10 minutes. Spheroids were grown for 2 days before replacing media with 200 μL of fresh media containing 10 nM Cytox Green (ThermoFisher) and a range of concentrations of KDC, KFDC, KADC, or MMAE. After 4 d, trypsin-EDTA was added and cells were placed on a 60 RPM shaker for 10 min to disrupt spheroids. Green fluorescence was measured using was measured with a BioTek Synergy H4 microtiter plate reader. Percent toxicity was calculated by comparing green fluorescence to spheroids treated with lysis buffer.

[4] = system: RFP-expressing U87MG tumor spheroids; assay: Cell spheroid killing assay over time (IncuCyte); assay type: cell-based
Protocol: as §1
Spheroids of RFP-expressing U87MG cells were formed by seeding round-bottom, 96-well ultra-low adhesion plates (Corning) with 4×10^3 cells/well and centrifuging at 1000×g for 10 minutes. Spheroids were grown for 2 days before replacing media with 200 μL of fresh media containing 10 nM Cytox Green (ThermoFisher) and 0, 50, or 100 nM KDC, KFDC, KADC, or MMAE. Spheroids were incubated in an IncuCyte S3 Live-Cell Analysis System for 5 d with images collected every 4 h.

[5] = 1 mg/kg once weekly for 4 weeks
[6] = 5 mg/kg once weekly for 4 weeks

Compound: CC[C@H](C)[C@@H]([C@@H](CC(=O)N1CCC[C@H]1[C@H](OC)[C@@H](C)C(=O)N[C@H](C)[C@@H](O)c1ccccc1)OC)N(C)C(=O)[C@@H](NC(=O)[C@H](C(C)C)N(C)C(=O)OCc1ccc(NC(=O)[C@H](CCCNC(N)=O)NC(=O)[C@@H](NC(=O)CCOCCOCCOCCNC(=O)CCC(=O)N2Cc3ccccc3-c3c(nnn3CCC[C@@H]3NC(=O)[C@@H]4CSSC[C@@H]5NC(=O)[C@H](C(C)C)NC(=O)[C@H](CSSC[C@H](NC(=O)CN)C(=O)N6CCC[C@H]6C(=O)N[C@@H](CCCNC(=N)N)C(=O)N6CCC[C@H]6C(=O)N[C@@H](CCCNC(=N)N)C(=O)NCC(=O)N[C@@H](CC(=O)O)C(=O)N[C@@H](CC(N)=O)C(=O)N6CCC[C@H]6C(=O)N6CCC[C@H]6C(=O)N[C@@H](CC(C)C)C(=O)N[C@@H]([C@@H](C)O)C(=O)N4)NC(=O)CNC(=O)[C@H](C)NC(=O)[C@H](CC(C)C)NC(=O)[C@H](CSSC[C@@H](C(=O)NCC(N)=O)NC(=O)[C@H](Cc4ccc(O)cc4)NC(=O)CNC(=O)[C@H](CC(N)=O)NC(=O)[C@@H]4CCCN4C(=O)CNC5=O)NC(=O)[C@H](CC(=O)O)NC(=O)[C@H](CO)NC(=O)[C@H](CC(=O)O)NC(=O)[C@H](CCC(N)=O)NC3=O)-c3ccccc32)C(C)C)cc1)C(C)C [KDC] (I: H-GCPRPRGDNPPLTC[X1]QDSDCLAGCVCGPNGYCG-NH2 / II: V[Cit][PABC][NMeV]V[Dil][Dolaproine]-X2; disulfide I:2-I:24, I:14-I:26, I:20-I:32; linker I:15-II:N via X3; N-terminus assumed)
- inhibition of proliferation [1]: complete cell inhibition
- organ uptake ex vivo [2]: higher kidney and bladder uptake
- tumor growth (U87MG hip xenografts; [5]): significantly delayed tumor growth but did not cause tumor regression
- tumors regrew after the end of treatment (U87MG hip xenografts; [5]): 5 of 5
- efficacy (U87MG hip xenografts; [6]): very effective
- tumor regression (U87MG hip xenografts; [6]): 4 of 5
- comparison by mass of drug conjugate per kg mouse body weight (U87MG hip xenografts; once weekly for 4 weeks): significantly outperformed both KFDC and KADC
- liver and kidney histology, acute toxicity [3]: no evidence of acute toxicity
- spheroid killing (U87MG tumor spheroids): substantially more killing than KFDC, KADC, or MMAE
- spheroid toxicity ([4]; 50 or 100 nM, imaged every 4 h): ~100%
- potency when co-administered with unconjugated knottin ([4]; drug conjugate plus unconjugated knottin): equivalently effective with or without addition of unconjugated knottin

Source: patent publication US20220211861A1, “DRUG CONJUGATES AND METHODS OF USING SAME” (The Board of Trustees of the Leland Staford Junior …, priority 2019, published 2022)
